Assay results taken from patent US9403843B2, “Cysteine protease inhibitors and uses thereof” (The Trustees of Columbia University in the City of New York, priority 2012, dated 2016).
Where two headings read alike, the source gives them in different places.

What was measured:
full-length human Cal1 [1] = molecular target: T1, full-length human Cal1 (Homo sapiens (Human), UniProt P07384); assay: Calpain inhibition FRET assay; type: biochemical
papain = papain (Carica papaya (Papaya), UniProt P00784); assay: biochemical; type: biochemical
papain, sequence (P00784 134-345): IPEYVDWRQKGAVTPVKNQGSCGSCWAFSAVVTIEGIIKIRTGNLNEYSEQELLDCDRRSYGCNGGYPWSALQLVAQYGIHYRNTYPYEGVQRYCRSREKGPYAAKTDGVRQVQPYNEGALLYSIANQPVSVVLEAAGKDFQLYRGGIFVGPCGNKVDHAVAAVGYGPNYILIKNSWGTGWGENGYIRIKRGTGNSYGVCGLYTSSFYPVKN

Cal1cat vs CathB = assay: Competition assay for Cal1 vs CathB using the biotinylated epoxide probe; type: binding, rat
[2] = Plasma pharmacokinetics after i.p. administration; type: in vivo; details: ICR mice
Experimental: Plasma concentrations of 30a, 33 and 50 were determined by LC-MS/MS after i.p. administration to ICR mice. The plasma concentrations at each sampling time are shown on FIG. 10. […] Indeed, following i.p. administration of 30a (7.57 mg/kg), 33 (7.86 mg/kg) and 50 (7.83 mg/kg), the peak plasma concentration occurred at 0.25, 0.5 and 0.125 h after dosing, respectively. […] The respective half-lives were ˜0.6 hrs, ˜1.1 hrs and ˜0.6 hrs.

[3] = test system: calpain-generated spectrin fragments; assay: Spectrin proteolytic degradation products in hippocampi, western blot; type: in vivo
Experimental: Studies were performed to determine capability of lowering levels of spectrin proteolytic degradation products in hippocampi from adult animals. Using western blot analysis, prevention of calpain-generated spectrin fragments was checked following i.p. treatment for 12 days with 30a, 33 and 50 at the same concentrations used for PK assessment. The array of vehicle samples was obtained by loading samples with 5, 10, 15, and 20 μg total protein/lane. Samples from compound treated animals were loaded at 15 μg/lane.

Aβ40 and Aβ42 = assay: Effect on Aβ levels in APP/PS1 mice; type: in vivo; details: compound-treated vs vehicle-treated APP/PS1 transgenics
Text: Increase of brain and plasma levels of Aβ and appearance of amyloid plaques is an important feature of AD.

full-length human Cal1 [4] = molecular target: T1, full-length human Cal1; assay: Calpain inhibition FRET assay; type: biochemical; details: Table 3, 20 min incubation, FRET substrate

T1 sequence (P07384 whole entry): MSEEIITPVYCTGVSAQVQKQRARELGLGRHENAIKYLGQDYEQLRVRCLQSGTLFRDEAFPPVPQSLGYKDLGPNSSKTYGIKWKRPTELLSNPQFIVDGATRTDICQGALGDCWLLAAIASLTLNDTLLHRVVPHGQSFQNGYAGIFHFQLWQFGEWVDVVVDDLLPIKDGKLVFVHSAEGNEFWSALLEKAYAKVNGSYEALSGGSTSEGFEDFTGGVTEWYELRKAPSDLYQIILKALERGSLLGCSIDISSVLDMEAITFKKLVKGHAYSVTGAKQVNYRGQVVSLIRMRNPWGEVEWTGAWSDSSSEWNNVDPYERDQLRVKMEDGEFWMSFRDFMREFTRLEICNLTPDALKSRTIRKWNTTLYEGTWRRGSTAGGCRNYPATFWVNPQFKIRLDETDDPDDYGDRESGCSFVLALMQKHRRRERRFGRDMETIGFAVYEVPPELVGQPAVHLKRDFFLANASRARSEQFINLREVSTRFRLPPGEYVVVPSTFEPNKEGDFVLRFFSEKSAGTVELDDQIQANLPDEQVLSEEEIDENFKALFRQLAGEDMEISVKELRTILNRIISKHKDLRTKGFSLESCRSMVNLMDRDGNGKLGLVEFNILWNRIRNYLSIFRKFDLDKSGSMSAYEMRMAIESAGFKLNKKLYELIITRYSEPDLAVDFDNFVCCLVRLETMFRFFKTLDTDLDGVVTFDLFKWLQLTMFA
T1 sequence (P04632 whole entry partner): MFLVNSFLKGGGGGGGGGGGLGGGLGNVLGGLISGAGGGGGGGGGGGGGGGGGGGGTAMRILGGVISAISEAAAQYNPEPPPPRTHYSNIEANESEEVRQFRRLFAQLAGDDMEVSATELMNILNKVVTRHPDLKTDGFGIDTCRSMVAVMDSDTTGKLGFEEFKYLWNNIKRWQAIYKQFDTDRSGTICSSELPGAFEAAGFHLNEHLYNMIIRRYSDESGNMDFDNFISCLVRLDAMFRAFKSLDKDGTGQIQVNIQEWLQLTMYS

## O=C(O)C1OC1C(=O)N[C@@H](Cc1cscn1)C(=O)Nc1nc(-c2ccc(F)cc2)cs1 (stereo in doubt) [Compound 33, (2S,3S)-3-((S)-1-(4-(4-fluorophenyl)thiazol-2-ylamino)-1-oxo-3-(thiazol-4-yl)propan-2-ylcarbamoyl)oxirane-2-carboxylic acid]
full-length human Cal1 [1]; Cal1, values stated in text, read-out: IC50
  IC50: ~100 nM
full-length human Cal1 [1]; Table 2, approximate IC50, read-out: Cal I IC50
  IC50: 100 nM
papain; apparent equilibrium constant, read-out: K1 Papain
  Ki: 5300 nM
papain; inhibition rate
  ki Papain: 14.8 s⁻¹
papain; ki/Ki calculated relative to E-64
  rel Papain: 0.50
papain; mean ± S.D. of triplicate experiments
  10^−5 × ki/Ki Papain: 27.9 ± 4.7
Cal1cat vs CathB; 10 min pre-treatment, then 20 min with 27
  blocking of active site modification by probe 27 (western blot signal): little change in the CathB signal
Cal1cat vs CathB; ratio for probe 27 alone set as 1.0, inhibitor 5 μM
  selectivity for Cal1cat (ratio of Cal1cat versus CathB band intensities): highest selectivity
[2]; i.p., 30a 7.57, 33 7.86, 50 7.83 mg/kg
  time of peak plasma concentration: 0.5 h
[2]; mouse, ip, plasma
  half-life: ~1.1 h
[2]; mouse, plasma, ip, after i.p. administration, read-out: absolute bioavailability
  bioavailability: 87.3%
[3]; i.p. treatment for 12 days, doses as for PK
  prevention of spectrin cleavage by calpains in hippocampi: dramatically reduced the amount of fragments
[3]; inferred from hippocampal spectrin cleavage
  brain penetration: capable of effectively penetrating the brain
Aβ40 and Aβ42
  Aβ40 and Aβ42 levels in hippocampi: no difference was detected
full-length human Cal1 [4]
  IC50: 100 nM
